Source: article PMC3264828 (European Journal of Medicinal Chemistry, 2011)

Key:
[1] = test system: in vivo model of Parkinson's disease; details: African green monkeys; cited from earlier work
D1 receptor = details: cited from earlier work
aged monkeys = details: cited from earlier work
prefrontal cortex = details: cited from earlier work
D1-like receptors [2] = details: cited from earlier work
D1-like receptors [3] = molecular target: D1-like receptors (Sus scrofa, UniProt P50130); assay: Competition binding with [3H]SCH-23390 in porcine striatal homogenates; details: porcine striatal preparations; for decrease in D1 affinity compared to 2: relative to DOX (2)
[4] = molecular target: D1 dopamine receptor mutant L190A (Homo sapiens, UniProt P21728, L190A); assay: Mutagenesis experiments of the D1 dopamine receptor; assay type: binding; details: residue in extracellular loop 2; to be published elsewhere
D1 = details: 2-substituted DHX analogues; cited from earlier work

Sequence of D1-like receptors (Sus scrofa, UniProt P50130) (P50130 whole entry): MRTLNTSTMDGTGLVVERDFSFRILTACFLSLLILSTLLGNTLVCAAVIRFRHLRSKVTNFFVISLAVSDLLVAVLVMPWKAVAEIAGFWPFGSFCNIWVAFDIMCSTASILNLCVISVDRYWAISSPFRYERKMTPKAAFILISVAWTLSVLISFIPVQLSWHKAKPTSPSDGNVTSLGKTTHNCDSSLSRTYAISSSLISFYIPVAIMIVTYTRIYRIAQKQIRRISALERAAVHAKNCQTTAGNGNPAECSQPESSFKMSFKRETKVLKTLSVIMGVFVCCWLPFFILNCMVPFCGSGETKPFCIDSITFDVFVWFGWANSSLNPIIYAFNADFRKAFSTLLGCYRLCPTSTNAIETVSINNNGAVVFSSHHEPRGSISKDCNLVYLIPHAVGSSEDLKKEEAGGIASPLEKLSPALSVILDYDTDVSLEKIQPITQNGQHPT
Sequence of D1 dopamine receptor mutant L190A (P21728 whole entry L190A): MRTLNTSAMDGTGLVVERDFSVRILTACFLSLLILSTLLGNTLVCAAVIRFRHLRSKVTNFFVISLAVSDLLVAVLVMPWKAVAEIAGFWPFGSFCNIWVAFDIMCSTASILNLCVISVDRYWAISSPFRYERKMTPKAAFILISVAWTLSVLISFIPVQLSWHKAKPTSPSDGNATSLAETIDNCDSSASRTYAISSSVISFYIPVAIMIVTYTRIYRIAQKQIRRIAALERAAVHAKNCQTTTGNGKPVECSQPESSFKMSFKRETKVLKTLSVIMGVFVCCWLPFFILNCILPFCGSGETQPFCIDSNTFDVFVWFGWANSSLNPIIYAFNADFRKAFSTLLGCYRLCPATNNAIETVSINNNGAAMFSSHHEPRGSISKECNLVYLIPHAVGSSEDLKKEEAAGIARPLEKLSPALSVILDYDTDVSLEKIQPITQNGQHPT

With `Oc1cc2c(cc1O)[C@H]1c3ccccc3CN[C@@H]1CC2` (relative stereo) [compound 1, trans-10,11-dihydroxy-5,6,6a,7,8,12b-hexahydrobenzo[a]phenanthridine] as the compound, how does the “therapeutic potential in an in vivo model of Parkinson's disease” value [1] read?
The value was “significant therapeutic potential”.

And the “dopamine D1 agonist character” value (D1 receptor)?
Its value is “potent dopamine D1 full agonist”.

What about the working memory (aged monkeys) of the same compound?
The working memory was “improve working memory in aged monkeys”.

And the “blood flow in the prefrontal cortex” value (prefrontal cortex)?
The value was “increase blood flow in the prefrontal cortex”.

And the “affinity for D1-like receptors over D2-like receptors” value (D1-like receptors [2])?
Its value is “ten-fold higher affinity”.

Which results are given for `Cc1ccc2c(c1)[C@@H]1c3cc(O)c(O)cc3OC[C@H]1NC2.Cl` (racemic) [5a, (±)-Trans-11-methyl-2,3-dihydroxy-6a,7,8,12b-tetrahydro-6H-chromeno[3,4-c]isoquinoline hydrobromide]?
decrease in D1 affinity compared to 2 (D1-like receptors [3]): nearly six-fold decrease; affinity at mutant L190A of the D1 dopamine receptor [4]: significantly increased affinity

With `Oc1cc2c(cc1O)C1c3ccccc3CNC1CO2` (single isomer, unassigned; (+)) [(+)-2] as the compound, how does the “efficacy for activation of the D1 receptor” value (D1 receptor; compared with dopamine) read?
The value was “higher efficacy than dopamine”.

For `Cc1ccc2c(c1)[C@@H]1c3cc(O)c(O)cc3CC[C@H]1NC2` [compound 3], which “D1 affinity in comparison to DHX” value (D1) is on record?
The value was “did not significantly reduce the affinity”.

And the “affinity at mutant L190A of the D1 dopamine receptor” value [4]?
The value was “but not for 3”.

Which “D1 affinity in comparison to DHX” value (D1) does the source give for `CCc1ccc2c(c1)[C@@H]1c3cc(O)c(O)cc3CC[C@H]1NC2` [compound 4] here?
Its value is “affinity lower than the unsubstituted compound”.

Which “decrease in D1 affinity compared to the methyl substituted compound 5a” value (D1-like receptors [3]; relative to 5a) does the source give for `Cl.Oc1cc2c(cc1O)[C@H]1c3cc(C(F)(F)F)ccc3CN[C@@H]1CO2` (racemic) [5d, (±)-Trans-2,3-dihydroxy-11-trifluoromethyl-6a,7,8,12b-tetrahydro-6H-chromeno[3,4-c]isoquinoline hydrochloride] here?
Its value is “almost four-fold decrease”.

And the “decrease in D1 affinity compared to 2” value (D1-like receptors [3])?
Its value is 22 fold.
